Laboratory results published in ChEMBL document CHEMBL5634123, “Design and synthesis of 1H-benzo[d]imidazole selective HDAC6 inhibitors with potential therapy for multiple myeloma” (Eur J Med Chem, 2023).
Activity calls are given as the source filed them. The calls are words filed in the database; no cut-off is given here.

Columns and labels:
Histone deacetylase 2 = Histone deacetylase 2 (Homo sapiens, UniProt Q92769); test: Inhibition of HDAC2 (unknown origin) preincubated for 10 mins followed by substrate addition by fluorescence based assay
Chain of Histone deacetylase 2 (Q92769 whole entry): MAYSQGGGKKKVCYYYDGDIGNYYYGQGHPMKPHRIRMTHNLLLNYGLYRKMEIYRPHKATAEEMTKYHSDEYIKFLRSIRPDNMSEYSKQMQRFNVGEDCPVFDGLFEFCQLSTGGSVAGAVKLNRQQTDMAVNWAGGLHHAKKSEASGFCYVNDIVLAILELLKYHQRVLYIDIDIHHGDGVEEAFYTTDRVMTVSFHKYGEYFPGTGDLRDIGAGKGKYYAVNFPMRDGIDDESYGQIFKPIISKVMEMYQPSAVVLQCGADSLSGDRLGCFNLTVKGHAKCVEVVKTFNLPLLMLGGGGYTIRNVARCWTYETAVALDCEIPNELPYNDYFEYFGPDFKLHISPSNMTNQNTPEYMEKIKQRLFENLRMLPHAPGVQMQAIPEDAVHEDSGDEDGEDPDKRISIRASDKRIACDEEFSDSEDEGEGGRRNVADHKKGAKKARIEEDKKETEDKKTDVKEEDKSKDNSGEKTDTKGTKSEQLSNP

RPMI-8226 [1] = test: Antitumor activity against human RPMI-8226 cells xenografted in Balb/c nude mouse assessed as reduction in tumor volume at 10 to 40 mg/kg, po qd for 21 days administered consecutively; format: functional, organism-based; conditions: dose 10-40 mg/kg, time 21.0 day
RPMI-8226 [2] = test: Induction of cell cycle arrest at S phase in human RPMI-8226 cells at 0.1 uM incubated for 24 hrs by PI staining based flow cytometry (reference value: 58.5 %); format: functional

- IC50 (Histone deacetylase 2): 1790 nM
SMILES: Cn1c([C@@H](Cc2ccccc2)NCc2ccccc2)nc2cc(C(=O)NO)ccc21
- Activity (RPMI-8226 [1]): Active
- Activity (RPMI-8226 [2]): 54%
